Experimental data reported in the NIST ThermoML archive (doi:10.1016/j.jct.2018.03.031).
Several values for one entry are separate records, joined by “and”; a condition that tells them apart may be missing. Equal entries are not always repeated. Numbers after ± are expanded uncertainties.

How the values were obtained:
[1] = molar heat capacity at constant pressure; details: 101.33 kPa, Large sample (1 g) DSC
[2] = Molar enthalpy of transition or fusion; details: DSC
[3] = DSC

CCCC[N+]1(C)CCCC1.O=S(=O)([O-])C(F)(F)F [1-butyl-1-methylpyrrolidinium trifluoromethanesulfonate]
[1], Liquid
Details	molar heat capacity at constant pressure [J/K/mol]
283.15 K	436.5 ± 11
288.15 K	438.3 ± 11
293.15 K	439.9 ± 11
298.15 K	442.7 ± 11
303.15 K	445.3 ± 11
308.15 K	447.8 ± 11
313.15 K	452.2 ± 11
318.15 K	455.3 ± 11
323.15 K	457.2 ± 11
328.15 K	460 ± 11
333.15 K	461.9 ± 11
338.15 K	464.6 ± 11

CCCCCCOS(=O)(=O)[O-].CC[n+]1ccn(C)c1 [3-ethyl-1-methyl-1H-imidazolium hexyl sulfate]
[1], Liquid
Details	molar heat capacity at constant pressure [J/K/mol]
283.15 K	505.2 ± 12
288.15 K	508.3 ± 12
293.15 K	509.1 ± 12
298.15 K	513.9 ± 13
303.15 K	517.4 ± 13
308.15 K	520.2 ± 13
313.15 K	523.1 ± 13
318.15 K	526 ± 13
323.15 K	528.4 ± 13
328.15 K	531.5 ± 13
333.15 K	534 ± 13
338.15 K	537.6 ± 13

CCn1cc[n+](C)c1.O=S(=O)([N-]S(=O)(=O)C(F)(F)F)C(F)(F)F
[1], Liquid
Details	molar heat capacity at constant pressure [J/K/mol]
283.15 K	521 ± 13
288.15 K	522.6 ± 13
293.15 K	524.2 ± 13
298.15 K	526.4 ± 13
303.15 K	528.5 ± 13
308.15 K	530.7 ± 13
313.15 K	532.5 ± 13
318.15 K	534.8 ± 13
323.15 K	536.3 ± 13
328.15 K	538.9 ± 13
333.15 K	540.2 ± 13
338.15 K	541.7 ± 13

COCC[N+]1(C)CCCC1.O=S(=O)([N-]S(=O)(=O)C(F)(F)F)C(F)(F)F
[1], Liquid
Details	molar heat capacity at constant pressure [J/K/mol]
283.15 K	575.3 ± 14
288.15 K	578.9 ± 14
293.15 K	580.3 ± 14
298.15 K	582.3 ± 14
303.15 K	584.7 ± 14
308.15 K	586.5 ± 14
313.15 K	588.9 ± 14
318.15 K	591.3 ± 14
323.15 K	593.2 ± 14
328.15 K	596.3 ± 15
333.15 K	597.5 ± 15
338.15 K	602.6 ± 15

CCCC[P+](CCCC)(CCCC)CCCC.FC(F)(F)C(F)(F)[P-](F)(F)(F)(C(F)(F)C(F)(F)F)C(F)(F)C(F)(F)F
molar heat capacity at constant pressure [J/K/mol], [1]
Details	283.15 K	288.15 K	293.15 K	298.15 K	303.15 K	323.15 K	328.15 K
Crystal 1	–	–	–	–	–	1029.4 ± 25	1049.8 ± 26
Crystal 2	971 ± 24	981.2 ± 24	990.3 ± 24	1003.2 ± 25	1018.4 ± 25	–	–

Details	Molar enthalpy of transition or fusion, [2]	Triple point temperature, [3]
Crystal 1	1.86 ± 0.0717 kcal/mol	342.15 ± 1 K
Crystal 2	2.13 kcal/mol and 2.08 kcal/mol	313.75 ± 0.8 K and 313.15 ± 1 K

CCCCO [butan-1-ol]
[1], Liquid
Details	molar heat capacity at constant pressure [J/K/mol]
283.15 K	168 ± 4.1
288.15 K	171 ± 4.2
293.15 K	174.1 ± 4.3
298.15 K	177.9 ± 4.4
303.15 K	181.1 ± 4.4
308.15 K	184.5 ± 4.5
313.15 K	187.8 ± 4.6
318.15 K	191.4 ± 4.7
323.15 K	196 ± 4.8
328.15 K	200.1 ± 4.9
333.15 K	204.1 ± 5
338.15 K	208.4 ± 5.1

CCCCn1cc[n+](C)c1C.O=S(=O)([O-])C(F)(F)F [1-butyl-2,3-dimethylimidazolium trifluoromethanesulfonate]
molar heat capacity at constant pressure [J/K/mol], [1]
Details	283.15 K	288.15 K	293.15 K	323.15 K	328.15 K	333.15 K	338.15 K
Crystal 2	381.1 ± 9.4	394.6 ± 9.7	407.1 ± 10	–	–	–	–
Liquid	–	–	–	472.2 ± 12	474.3 ± 12	475.2 ± 12	478.7 ± 12

Details	Molar enthalpy of transition or fusion, [2]	Triple point temperature, [3]
Crystal 1	3.59 kcal/mol	315.25 ± 0.8 K and 316.15 ± 1 K
Crystal 2	1.29 kcal/mol and 1.7 kcal/mol	307.45 ± 0.8 K and 306.15 ± 1 K
